“And” between values parts separate entries of the source, which are not always exact repeats. Equal values may be shown once. Inconclusive results and toxic doses are left out.
System: P388 leukemia ip, CD2F1 mice, survival T/C
Assay: NCI In Vivo Anticancer Drug Screen. Data for tumor model P388 Leukemia (intraperitoneal) in CD2F1 (CDF1) mice
Settings: endpoint: median survival time, higher = longer survival
Procedure, shortened: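 Mice carrying the transplanted tumor received test compound or vehicle. Survival was recorded in each group, and the value is the treated-group measurement divided by that of the vehicle-treated control group.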

`Cc1[nH]c(=O)[nH]c(=O)c1N(CCF)CCCl` was tested, and the T/C (dose: 0.5 mg/kg/injection, schedule: Q03HX024 (ip), vehicle: acid diluted with saline) was 101 % of control, the T/C (dose: 1.0 mg/kg/injection, schedule: Q03HX016 (ip), vehicle: acid diluted with saline) was 100 % of control and the T/C (dose: 1.0 mg/kg/injection, schedule: Q03HX024 (ip), vehicle: acid diluted with saline) was 105 % of control. The T/C (dose: 1.8 mg/kg/injection, schedule: Q01DX009 (ip), vehicle: saline with Tween-80) was 109 % of control, the T/C (dose: 2.0 mg/kg/injection, schedule: Q01DX009 (ip), vehicle: acid diluted with saline) was 110 % of control and the T/C (dose: 2.0 mg/kg/injection, schedule: Q01DX009 (sc), vehicle: acid diluted with saline) was 101 % of control. The T/C (dose: 2.0 mg/kg/injection, schedule: Q03HX008 (ip), vehicle: acid diluted with saline) was 105 % of control, the T/C (dose: 2.0 mg/kg/injection, schedule: Q03HX016 (ip), vehicle: acid diluted with saline) was 105 % of control and the T/C (dose: 2.0 mg/kg/injection, schedule: Q03HX024 (ip), vehicle: acid diluted with saline) was 108 % of control. The T/C (dose: 2.0 mg/kg/injection, schedule: Q03HX024 (oral), vehicle: acid diluted with saline) was 109 % of control, the T/C (dose: 2.0 mg/kg/injection, schedule: Q03HX024 (oral), vehicle: other) was 107 % of control and the T/C (dose: 3.0 mg/kg/injection, schedule: Q01DX009 (ip), vehicle: saline with Tween-80) was 109 % of control. The T/C (dose: 4.0 mg/kg/injection, schedule: Q01DX005 (ip), vehicle: Klucel (hydroxypropylcellulose) (HPC)) was 121 % of control, the T/C (dose: 4.0 mg/kg/injection, schedule: Q01DX005 (iv), vehicle: Klucel (hydroxypropylcellulose) (HPC)) was 102 % of control and the T/C (dose: 4.0 mg/kg/injection, schedule: Q01DX009 (ip), vehicle: acid diluted with saline) was 101 % of control. The T/C (dose: 4.0 mg/kg/injection, schedule: Q01DX009 (sc), vehicle: acid diluted with saline) was 103 % of control, the T/C (dose: 4.0 mg/kg/injection, schedule: Q03HX008 (ip), vehicle: acid diluted with saline) was 105 % of control and the T/C (dose: 4.0 mg/kg/injection, schedule: Q03HX008 (oral), vehicle: other) was 105 % of control. For the same molecule, the T/C (dose: 4.0 mg/kg/injection, schedule: Q03HX016 (oral), vehicle: other) was 100 % of control, the T/C (dose: 4.0 mg/kg/injection, schedule: Q03HX024 (ip), vehicle: acid diluted with saline) was 112 % of control and the T/C (dose: 4.0 mg/kg/injection, schedule: Q03HX024 (oral), vehicle: acid diluted with saline) was 100 % of control. The T/C (dose: 4.0 mg/kg/injection, schedule: Q03HX024 (oral), vehicle: other) was 108 % of control, the T/C (dose: 4.0 mg/kg/injection, schedule: Q04DX003 (ip), vehicle: acid diluted with saline) was 106 % of control and the T/C (dose: 5.0 mg/kg/injection, schedule: Q01DX009 (ip), vehicle: saline with Tween-80) was 109 % of control. The T/C (dose: 6.25 mg/kg/injection, schedule: Q04DX003 (ip), vehicle: saline) was 104 % of control, the T/C (dose: 8.0 mg/kg/injection, schedule: Q01DX001 (ip), vehicle: acid diluted with saline) was 109 % of control and the T/C (dose: 8.0 mg/kg/injection, schedule: Q01DX001 (ip), vehicle: saline) was 118 % of control. For the same molecule, the T/C (dose: 8.0 mg/kg/injection, schedule: Q01DX005 (iv), vehicle: Klucel (hydroxypropylcellulose) (HPC)) was 119 % of control, the T/C (dose: 8.0 mg/kg/injection, schedule: Q01DX009 (ip), vehicle: acid diluted with saline) was 116 % of control and the T/C (dose: 8.0 mg/kg/injection, schedule: Q01DX009 (oral), vehicle: acid diluted with saline) was 109 % of control. For the same molecule, the T/C (dose: 8.0 mg/kg/injection, schedule: Q01DX009 (oral), vehicle: other) was 115 % of control, the T/C (dose: 8.0 mg/kg/injection, schedule: Q01DX009 (sc), vehicle: acid diluted with saline) was 108 % of control and the T/C (dose: 8.0 mg/kg/injection, schedule: Q03HX008 (ip), vehicle: acid diluted with saline) was 103 % of control. For the same molecule, the T/C (dose: 8.0 mg/kg/injection, schedule: Q03HX008 (oral), vehicle: acid diluted with saline) was 109 % of control, the T/C (dose: 8.0 mg/kg/injection, schedule: Q03HX008 (oral), vehicle: other) was 106 % of control and the T/C (dose: 8.0 mg/kg/injection, schedule: Q03HX016 (ip), vehicle: acid diluted with saline) was 105 % of control. For the same molecule, the T/C (dose: 8.0 mg/kg/injection, schedule: Q03HX016 (oral), vehicle: acid diluted with saline) was 100 % of control, the T/C (dose: 8.0 mg/kg/injection, schedule: Q03HX016 (oral), vehicle: other) was 106 % of control and the T/C (dose: 8.0 mg/kg/injection, schedule: Q03HX024 (oral), vehicle: acid diluted with saline) was 104 % of control. For the same molecule, the T/C (dose: 8.0 mg/kg/injection, schedule: Q03HX024 (oral), vehicle: other) was 115 % of control, the T/C (dose: 8.0 mg/kg/injection, schedule: Q04DX003 (ip), vehicle: acid diluted with saline) was 112 % of control and the T/C (dose: 8.0 mg/kg/injection, schedule: Q08DX002 (ip), vehicle: acid diluted with saline) was 100 % of control. The T/C (dose: 12.5 mg/kg/injection, schedule: Q04DX003 (ip), vehicle: saline) was 122 % of control, the T/C (dose: 16.0 mg/kg/injection, schedule: Q01DX001 (ip), vehicle: acid diluted with saline) was 103 % of control and 118 % of control and 122 % of control and the T/C (dose: 16.0 mg/kg/injection, schedule: Q01DX001 (ip), vehicle: saline) was 122 % of control. The T/C (dose: 16.0 mg/kg/injection, schedule: Q01DX001 (sc), vehicle: acid diluted with saline) was 100 % of control, the T/C (dose: 16.0 mg/kg/injection, schedule: Q01DX005 (iv), vehicle: Klucel (hydroxypropylcellulose) (HPC)) was 121 % of control and the T/C (dose: 16.0 mg/kg/injection, schedule: Q01DX009 (ip), vehicle: acid diluted with saline) was 150 % of control. The T/C (dose: 16.0 mg/kg/injection, schedule: Q01DX009 (oral), vehicle: acid diluted with saline) was 113 % of control, the T/C (dose: 16.0 mg/kg/injection, schedule: Q01DX009 (oral), vehicle: other) was 115 % of control and the T/C (dose: 16.0 mg/kg/injection, schedule: Q01DX009 (sc), vehicle: acid diluted with saline) was 123 % of control. For the same molecule, the T/C (dose: 16.0 mg/kg/injection, schedule: Q03HX008 (ip), vehicle: acid diluted with saline) was 106 % of control, the T/C (dose: 16.0 mg/kg/injection, schedule: Q03HX008 (oral), vehicle: acid diluted with saline) was 109 % of control and the T/C (dose: 16.0 mg/kg/injection, schedule: Q03HX008 (oral), vehicle: other) was 106 % of control. For the same molecule, the T/C (dose: 16.0 mg/kg/injection, schedule: Q03HX016 (ip), vehicle: acid diluted with saline) was 105 % of control, the T/C (dose: 16.0 mg/kg/injection, schedule: Q03HX016 (oral), vehicle: acid diluted with saline) was 109 % of control and the T/C (dose: 16.0 mg/kg/injection, schedule: Q03HX024 (oral), vehicle: acid diluted with saline) was 109 % of control. The T/C (dose: 16.0 mg/kg/injection, schedule: Q03HX024 (oral), vehicle: other) was 100 % of control, the T/C (dose: 16.0 mg/kg/injection, schedule: Q04DX003 (ip), vehicle: acid diluted with saline) was 108 % of control and the T/C (dose: 16.0 mg/kg/injection, schedule: Q04DX003 (oral), vehicle: acid diluted with saline) was 113 % of control. For the same molecule, the T/C (dose: 16.0 mg/kg/injection, schedule: Q04DX003 (oral), vehicle: other) was 111 % of control, the T/C (dose: 16.0 mg/kg/injection, schedule: Q08DX002 (ip), vehicle: acid diluted with saline) was 101 % of control and the T/C (dose: 23.0 mg/kg/injection, schedule: Q01DX009 (ip), vehicle: saline with Tween-80) was 150 % of control. The T/C (dose: 25.0 mg/kg/injection, schedule: Q04DX003 (ip), vehicle: saline) was 163 % of control, the T/C (dose: 32.0 mg/kg/injection, schedule: Q01DX001 (ip), vehicle: acid diluted with saline) was 103 % of control and the T/C (dose: 32.0 mg/kg/injection, schedule: Q01DX001 (ip), vehicle: saline) was 154 % of control. For the same molecule, the T/C (dose: 32.0 mg/kg/injection, schedule: Q01DX001 (oral), vehicle: other) was 106 % of control, the T/C (dose: 32.0 mg/kg/injection, schedule: Q01DX001 (sc), vehicle: acid diluted with saline) was 99 % of control and the T/C (dose: 32.0 mg/kg/injection, schedule: Q01DX009 (ip), vehicle: acid diluted with saline) was 158 % of control. For the same molecule, the T/C (dose: 32.0 mg/kg/injection, schedule: Q01DX009 (oral), vehicle: acid diluted with saline) was 118 % of control, the T/C (dose: 32.0 mg/kg/injection, schedule: Q03HX008 (ip), vehicle: acid diluted with saline) was 107 % of control and the T/C (dose: 32.0 mg/kg/injection, schedule: Q03HX016 (oral), vehicle: acid diluted with saline) was 109 % of control. The T/C (dose: 32.0 mg/kg/injection, schedule: Q04DX003 (ip), vehicle: acid diluted with saline) was 123 % of control, the T/C (dose: 32.0 mg/kg/injection, schedule: Q04DX003 (oral), vehicle: acid diluted with saline) was 109 % of control and the T/C (dose: 32.0 mg/kg/injection, schedule: Q04DX003 (oral), vehicle: other) was 108 % of control. For the same molecule, the T/C (dose: 32.0 mg/kg/injection, schedule: Q08DX002 (ip), vehicle: acid diluted with saline) was 101 % of control, the T/C (dose: 32.0 mg/kg/injection, schedule: Q08DX002 (oral), vehicle: other) was 114 % of control and the T/C (dose: 64.0 mg/kg/injection, schedule: Q01DX001 (ip), vehicle: saline) was 159 % of control. For the same molecule, the T/C (dose: 64.0 mg/kg/injection, schedule: Q01DX001 (oral), vehicle: acid diluted with saline) was 109 % of control, the T/C (dose: 64.0 mg/kg/injection, schedule: Q01DX001 (oral), vehicle: other) was 108 % of control and the T/C (dose: 64.0 mg/kg/injection, schedule: Q01DX001 (sc), vehicle: acid diluted with saline) was 100 % of control. The T/C (dose: 64.0 mg/kg/injection, schedule: Q04DX003 (oral), vehicle: acid diluted with saline) was 109 % of control, the T/C (dose: 64.0 mg/kg/injection, schedule: Q04DX003 (oral), vehicle: other) was 124 % of control and the T/C (dose: 64.0 mg/kg/injection, schedule: Q08DX002 (oral), vehicle: acid diluted with saline) was 109 % of control. For the same molecule, the T/C (dose: 64.0 mg/kg/injection, schedule: Q08DX002 (oral), vehicle: other) was 115 % of control, the T/C (dose: 128.0 mg/kg/injection, schedule: Q01DX001 (oral), vehicle: acid diluted with saline) was 109 % of control and the T/C (dose: 128.0 mg/kg/injection, schedule: Q01DX001 (sc), vehicle: acid diluted with saline) was 99 % of control. The T/C (dose: 128.0 mg/kg/injection, schedule: Q01DX009 (oral), vehicle: acid diluted with saline) was 118 % of control, the T/C (dose: 128.0 mg/kg/injection, schedule: Q08DX002 (oral), vehicle: acid diluted with saline) was 100 % of control and the T/C (dose: 256.0 mg/kg/injection, schedule: Q01DX001 (oral), vehicle: acid diluted with saline) was 109 % of control. For the same molecule, the T/C (dose: 256.0 mg/kg/injection, schedule: Q01DX001 (sc), vehicle: acid diluted with saline) was 100 % of control, the T/C (dose: 256.0 mg/kg/injection, schedule: Q04DX003 (oral), vehicle: acid diluted with saline) was 118 % of control and the T/C (dose: 256.0 mg/kg/injection, schedule: Q08DX002 (oral), vehicle: acid diluted with saline) was 104 % of control. The T/C (dose: 512.0 mg/kg/injection, schedule: Q01DX001 (oral), vehicle: acid diluted with saline) was 113 % of control and the T/C (dose: 512.0 mg/kg/injection, schedule: Q08DX002 (oral), vehicle: acid diluted with saline) was 109 % of control.

— PubChem BioAssay AID330 (DTP/NCI, 2004)
